Calls of active or inactive are those of the source. The rule behind the calls is not given here.
Legend:
[1] = species: Homo sapiens; experiment: Inhibition of telomerase (unknown origin)
[2] = tested on: MDA-MB-468; experiment: Reduction of total Stat3 level in human MDA-MB-468 cells at 1 to 20 uM by Western blotting analysis; type: functional, cell-based
[3] = biological target: Signal transducer and activator of transcription 3 (Homo sapiens) (UniProt P40763); conditions: 10 uM
Description: Inhibition of STAT3 (unknown origin) assessed as total STAT3 level at 10 uM after 6 hrs by cell-based Western blotting analysis

[4] = biological target: Histone acetyltransferase p300 (Homo sapiens) (UniProt Q09472); experiment: Inhibition of P300 in human MDA-MB-231 cells at 1 to 20 uM by Western blotting analysis; type: cell-based
[5] = biological target: Endothelial PAS domain-containing protein 1 (Homo sapiens) (UniProt Q99814); experiment: Inhibition of HIF-2 alpha in human MDA-MB-468 cells at 1 to 20 uM by Western blotting analysis in hypoxia condition; type: cell-based
[6] = tested on: MCF7; experiment: Induction of apoptosis in human MCF7 cells assessed as reduction in cell viability at 10 uM after 12 to 48 hrs by MTT assay; type: functional, cell-based
[7] = tested on: OVCAR-3; experiment: Reduction of total Stat3 level in human OVCAR3 cells at 1 to 20 uM by Western blotting analysis; type: functional, cell-based
[8] = biological target: Hypoxia-inducible factor 1-alpha (Homo sapiens) (UniProt Q16665); experiment: Inhibition of HIF-1alpha in human MDA-MB-231 cells at 10 uM after 18 hrs by Western blotting analysis in hypoxia condition; type: cell-based
Hypoxia-inducible factor 1-alpha (Homo sapiens), sequence (Q16665 whole entry, looked up): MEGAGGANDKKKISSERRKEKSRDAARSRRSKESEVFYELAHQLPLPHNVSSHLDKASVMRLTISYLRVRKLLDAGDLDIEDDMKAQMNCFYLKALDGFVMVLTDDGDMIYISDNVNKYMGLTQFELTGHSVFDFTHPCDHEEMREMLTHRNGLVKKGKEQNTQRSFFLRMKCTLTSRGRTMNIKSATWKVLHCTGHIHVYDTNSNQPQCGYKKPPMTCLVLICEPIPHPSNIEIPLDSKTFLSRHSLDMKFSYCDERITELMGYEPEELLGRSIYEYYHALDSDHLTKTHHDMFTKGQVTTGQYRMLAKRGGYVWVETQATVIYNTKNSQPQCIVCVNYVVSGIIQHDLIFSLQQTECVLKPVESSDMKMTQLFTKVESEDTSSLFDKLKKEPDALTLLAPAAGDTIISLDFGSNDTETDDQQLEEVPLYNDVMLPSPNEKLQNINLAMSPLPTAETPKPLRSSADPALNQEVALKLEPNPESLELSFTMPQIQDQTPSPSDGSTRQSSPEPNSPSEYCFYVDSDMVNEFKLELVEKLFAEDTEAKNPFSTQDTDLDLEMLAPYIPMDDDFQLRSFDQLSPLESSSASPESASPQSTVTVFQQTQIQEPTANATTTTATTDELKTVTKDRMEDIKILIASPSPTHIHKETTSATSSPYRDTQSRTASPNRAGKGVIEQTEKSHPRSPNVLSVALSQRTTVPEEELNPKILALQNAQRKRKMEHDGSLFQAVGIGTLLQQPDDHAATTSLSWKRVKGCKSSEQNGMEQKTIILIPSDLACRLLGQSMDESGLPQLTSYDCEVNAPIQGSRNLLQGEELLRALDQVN

Signal transducer and activator of transcription 3 (Homo sapiens), sequence (P40763 whole entry): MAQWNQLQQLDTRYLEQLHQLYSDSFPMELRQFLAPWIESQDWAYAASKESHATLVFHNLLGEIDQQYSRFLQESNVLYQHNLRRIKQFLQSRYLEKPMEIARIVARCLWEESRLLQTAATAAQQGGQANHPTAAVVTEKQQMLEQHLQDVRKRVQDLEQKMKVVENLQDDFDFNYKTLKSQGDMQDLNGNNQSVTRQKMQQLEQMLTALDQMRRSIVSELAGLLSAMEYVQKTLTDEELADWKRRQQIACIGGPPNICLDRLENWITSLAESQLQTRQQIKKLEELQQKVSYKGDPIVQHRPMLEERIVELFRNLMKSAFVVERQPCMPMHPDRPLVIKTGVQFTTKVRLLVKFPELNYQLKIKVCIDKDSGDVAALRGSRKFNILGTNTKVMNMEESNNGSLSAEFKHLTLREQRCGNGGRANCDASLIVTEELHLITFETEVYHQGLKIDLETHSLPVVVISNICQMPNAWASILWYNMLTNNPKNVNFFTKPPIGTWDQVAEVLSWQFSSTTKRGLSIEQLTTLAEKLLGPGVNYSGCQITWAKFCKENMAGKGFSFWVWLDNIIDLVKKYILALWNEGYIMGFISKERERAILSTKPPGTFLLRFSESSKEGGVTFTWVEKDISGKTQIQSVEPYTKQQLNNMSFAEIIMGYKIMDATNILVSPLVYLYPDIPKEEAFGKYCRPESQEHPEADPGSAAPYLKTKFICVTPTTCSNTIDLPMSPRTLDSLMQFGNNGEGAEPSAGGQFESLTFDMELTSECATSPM
Histone acetyltransferase p300 (Homo sapiens), sequence (Q09472 whole entry, the tested form may be a part): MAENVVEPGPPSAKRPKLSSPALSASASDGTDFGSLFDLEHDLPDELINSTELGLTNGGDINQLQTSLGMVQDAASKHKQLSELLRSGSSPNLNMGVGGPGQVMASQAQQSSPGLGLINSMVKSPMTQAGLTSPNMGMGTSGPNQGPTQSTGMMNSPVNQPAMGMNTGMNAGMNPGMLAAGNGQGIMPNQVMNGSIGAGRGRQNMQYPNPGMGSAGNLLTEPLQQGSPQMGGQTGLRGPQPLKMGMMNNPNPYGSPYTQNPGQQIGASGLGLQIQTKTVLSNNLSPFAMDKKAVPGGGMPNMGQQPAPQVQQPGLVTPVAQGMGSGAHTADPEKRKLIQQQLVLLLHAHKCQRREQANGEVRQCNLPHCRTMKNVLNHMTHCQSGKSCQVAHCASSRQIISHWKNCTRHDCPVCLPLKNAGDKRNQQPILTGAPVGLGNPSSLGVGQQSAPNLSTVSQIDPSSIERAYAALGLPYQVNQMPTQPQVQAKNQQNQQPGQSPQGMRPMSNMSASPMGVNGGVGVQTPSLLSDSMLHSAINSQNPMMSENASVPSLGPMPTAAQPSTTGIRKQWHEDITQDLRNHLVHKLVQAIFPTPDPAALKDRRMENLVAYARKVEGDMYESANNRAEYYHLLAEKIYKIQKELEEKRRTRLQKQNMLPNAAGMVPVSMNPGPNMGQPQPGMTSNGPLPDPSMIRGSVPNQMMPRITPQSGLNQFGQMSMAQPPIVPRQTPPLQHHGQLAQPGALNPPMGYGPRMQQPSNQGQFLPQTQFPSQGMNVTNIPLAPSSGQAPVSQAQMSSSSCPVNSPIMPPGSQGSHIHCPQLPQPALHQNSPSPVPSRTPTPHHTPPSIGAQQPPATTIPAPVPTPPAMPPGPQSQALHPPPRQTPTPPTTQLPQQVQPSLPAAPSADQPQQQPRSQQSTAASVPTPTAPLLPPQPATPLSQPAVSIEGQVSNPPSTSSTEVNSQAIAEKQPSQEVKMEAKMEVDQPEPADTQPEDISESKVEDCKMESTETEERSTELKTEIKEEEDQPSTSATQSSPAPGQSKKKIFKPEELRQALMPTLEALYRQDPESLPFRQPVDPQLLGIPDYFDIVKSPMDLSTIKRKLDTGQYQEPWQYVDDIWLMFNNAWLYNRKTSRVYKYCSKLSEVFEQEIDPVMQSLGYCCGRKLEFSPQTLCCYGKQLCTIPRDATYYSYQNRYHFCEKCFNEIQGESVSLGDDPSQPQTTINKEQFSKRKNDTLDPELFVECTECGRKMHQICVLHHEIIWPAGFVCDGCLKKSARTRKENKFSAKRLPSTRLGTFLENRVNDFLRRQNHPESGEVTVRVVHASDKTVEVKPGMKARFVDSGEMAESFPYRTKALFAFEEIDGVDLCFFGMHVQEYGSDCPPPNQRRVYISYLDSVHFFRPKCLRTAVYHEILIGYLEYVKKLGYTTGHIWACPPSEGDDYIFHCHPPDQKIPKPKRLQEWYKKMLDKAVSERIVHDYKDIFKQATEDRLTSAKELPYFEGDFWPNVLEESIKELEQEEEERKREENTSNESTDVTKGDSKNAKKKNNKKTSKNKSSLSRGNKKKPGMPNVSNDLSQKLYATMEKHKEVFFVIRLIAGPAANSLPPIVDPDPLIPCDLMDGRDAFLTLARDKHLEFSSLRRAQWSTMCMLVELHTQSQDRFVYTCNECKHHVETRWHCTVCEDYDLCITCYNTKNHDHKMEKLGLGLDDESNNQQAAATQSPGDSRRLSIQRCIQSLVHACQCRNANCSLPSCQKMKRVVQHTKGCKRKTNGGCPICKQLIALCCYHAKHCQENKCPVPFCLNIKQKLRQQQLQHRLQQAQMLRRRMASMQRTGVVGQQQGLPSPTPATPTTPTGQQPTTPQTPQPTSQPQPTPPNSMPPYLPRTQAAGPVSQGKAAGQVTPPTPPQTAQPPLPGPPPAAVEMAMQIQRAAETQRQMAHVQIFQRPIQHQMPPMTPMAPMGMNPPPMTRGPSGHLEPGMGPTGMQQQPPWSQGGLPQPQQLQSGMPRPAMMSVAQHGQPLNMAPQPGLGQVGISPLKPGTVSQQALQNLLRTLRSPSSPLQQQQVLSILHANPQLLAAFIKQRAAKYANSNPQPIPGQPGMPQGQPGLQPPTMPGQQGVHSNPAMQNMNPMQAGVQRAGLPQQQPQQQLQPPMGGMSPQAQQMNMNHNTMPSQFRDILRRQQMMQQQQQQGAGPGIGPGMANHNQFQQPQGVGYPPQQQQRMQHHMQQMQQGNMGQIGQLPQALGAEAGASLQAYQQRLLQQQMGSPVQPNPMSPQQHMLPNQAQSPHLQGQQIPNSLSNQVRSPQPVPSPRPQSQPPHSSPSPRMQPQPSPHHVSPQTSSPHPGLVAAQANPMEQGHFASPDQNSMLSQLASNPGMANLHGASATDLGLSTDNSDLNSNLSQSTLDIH
Endothelial PAS domain-containing protein 1 (Homo sapiens), sequence (Q99814 whole entry, the tested form may be a part): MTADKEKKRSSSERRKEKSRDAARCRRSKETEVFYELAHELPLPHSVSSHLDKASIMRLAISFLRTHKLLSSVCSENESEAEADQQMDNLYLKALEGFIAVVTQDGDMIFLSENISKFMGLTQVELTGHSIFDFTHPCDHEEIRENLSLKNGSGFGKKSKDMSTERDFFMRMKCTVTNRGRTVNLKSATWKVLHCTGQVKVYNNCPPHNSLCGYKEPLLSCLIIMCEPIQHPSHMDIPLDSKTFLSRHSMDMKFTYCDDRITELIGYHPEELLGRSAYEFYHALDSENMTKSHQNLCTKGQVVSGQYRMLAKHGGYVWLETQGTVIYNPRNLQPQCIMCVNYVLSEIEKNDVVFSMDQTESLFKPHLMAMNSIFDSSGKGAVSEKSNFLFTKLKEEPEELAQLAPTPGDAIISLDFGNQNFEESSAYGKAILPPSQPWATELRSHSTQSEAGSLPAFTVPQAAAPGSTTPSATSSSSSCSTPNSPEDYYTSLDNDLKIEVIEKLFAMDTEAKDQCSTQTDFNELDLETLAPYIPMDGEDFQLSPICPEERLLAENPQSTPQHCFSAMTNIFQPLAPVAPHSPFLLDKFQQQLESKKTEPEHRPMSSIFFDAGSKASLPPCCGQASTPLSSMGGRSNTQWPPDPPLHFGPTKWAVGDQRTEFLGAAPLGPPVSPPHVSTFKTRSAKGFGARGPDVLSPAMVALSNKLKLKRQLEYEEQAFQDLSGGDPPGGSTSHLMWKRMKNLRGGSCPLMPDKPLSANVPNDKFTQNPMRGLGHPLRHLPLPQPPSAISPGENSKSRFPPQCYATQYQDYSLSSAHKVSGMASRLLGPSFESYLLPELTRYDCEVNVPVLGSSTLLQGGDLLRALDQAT

CN(C)CCCN1C(=O)c2ccc3c4ccc5c6c(ccc(c7ccc(c2c37)C1=O)c64)C(=O)N(CCCN(C)C)C5=O
inhibition [1]: Active | Activity [2]: Active | inhibition [3]: inactive | inhibition [4]: inactive | inhibition [5]: Active | Activity [6]: Active | Activity [7]: Active | inhibition [8]: Active
